Experimental data as given in BindingDB's records for doi:10.1021/jm00057a008 (American Cyanamid, 1993).

target: Platelet-activating factor receptor (Oryctolagus cuniculus); experiment: Inhibition of PAF-induced platelet aggregation in rabbit platelet rich plasma

Point of comparison: CCCCCCCCCCCCCCOc1ccccc1CN(Cc1cccc[n+]1C)C(C)=O [2-{[Acetyl-(2-tetradecyloxy-benzyl)-amino]-methyl}-1-methyl-pyridinium; iodide], IC50 43 µM. Against it:
- CCCCCCCCCCCCCCOc1ccc(C(=O)NCCc2cccc[n+]2C)cc1 [1-Methyl-2-[2-(4-tetradecyloxy-benzoylamino)-ethyl]-pyridinium; iodide] — not separable, > 10 µM
- CCCCCCCCCCCCCCOc1ccc(C(=O)NCc2cccc[n+]2C)cc1 [1-Methyl-2-[(4-tetradecyloxy-benzoylamino)-methyl]-pyridinium; iodide] — not separable, > 10 µM
- CCCCCCCCCCCCCCOc1ccc(CC(=O)NCCc2cccc[n+]2C)cc1 [1-Methyl-2-{2-[2-(4-tetradecyloxy-phenyl)-acetylamino]-ethyl}-pyridinium; iodide] — 2.9-fold lower, 15 µM
- CCCCCCCCCCCCCCOc1ccc(CC(=O)NCc2cccc[n+]2C)cc1 [1-Methyl-2-{[2-(4-tetradecyloxy-phenyl)-acetylamino]-methyl}-pyridinium; iodide] — not separable, > 10 µM
- CCCCCCCCCCCCCCOc1ccc(CNC(=O)c2cc[n+](C)cc2)cc1 [1-Methyl-4-(4-tetradecyloxy-benzylcarbamoyl)-pyridinium; iodide] — within 1.5-fold, 60 µM
- CCCCCCCOc1ccc(C(=O)N(Cc2cccc[n+]2C)C(C)=O)cc1OCCCCCCC [2-{[Acetyl-(3,4-bis-heptyloxy-benzoyl)-amino]-methyl}-1-methyl-pyridinium; iodide] — 12-fold lower, 3.7 µM
- CCCCCCCCCCCCCCOc1ccc(C(=O)N(Cc2cccc[n+]2C)C(C)=O)cc1OCCCCCCCCCCCCCC [2-{[Acetyl-(3,4-bis-tetradecyloxy-benzoyl)-amino]-methyl}-1-methyl-pyridinium; iodide] — not separable, > 10 µM
- CCCCCCCCCCCCCCOc1ccc(C(=O)N(Cc2cccc[n+]2CC)C(C)=O)cc1OC [2-{[Acetyl-(3-methoxy-4-tetradecyloxy-benzoyl)-amino]-methyl}-1-ethyl-pyridinium; iodide] — 270-fold lower, 0.16 µM
- CCCCCCCCCCCCCCOc1ccc(C(=O)N(Cc2cccc[n+]2C)C(C)=O)cc1OC [2-{[Acetyl-(3-methoxy-4-tetradecyloxy-benzoyl)-amino]-methyl}-1-methyl-pyridinium; iodide] — 670-fold lower, 0.064 µM
- CCCCCCCCCCOc1ccc(C(=O)N(Cc2cccc[n+]2C)C(C)=O)cc1C(C)(C)C [2-{[Acetyl-(3-tert-butyl-4-decyloxy-benzoyl)-amino]-methyl}-1-methyl-pyridinium; iodide] — 4.3-fold lower, 10 µM
- CCCCCCCCCCCCCCCCCCNC(=O)Oc1ccc(C(=O)N(Cc2cccc[n+]2C)C(C)=O)cc1C(C)(C)C [2-{[Acetyl-(3-tert-butyl-4-octadecylcarbamoyloxy-benzoyl)-amino]-methyl}-1-methyl-pyridinium; iodide] — not separable, > 10 µM
- CCCCCCCCCCCCCCOc1ccc(C(=O)N(Cc2cccc[n+]2C)C(C)=O)cc1C(C)(C)C [2-{[Acetyl-(3-tert-butyl-4-tetradecyloxy-benzoyl)-amino]-methyl}-1-methyl-pyridinium; iodide] — 2000-fold lower, 0.022 µM
- CCCCCCCCCCCCCCOc1cc(C(=O)N(Cc2cccc[n+]2C)C(C)=O)ccc1OC [2-{[Acetyl-(4-methoxy-3-tetradecyloxy-benzoyl)-amino]-methyl}-1-methyl-pyridinium; iodide] — 3.7-fold higher, 160 µM
- CCCCCCCCCCCCCCOc1ccc(C(=O)N(Cc2cccc[n+]2Cc2ccccc2)C(C)=O)cc1 [2-{[Acetyl-(4-tetradecyloxy-benzoyl)-amino]-methyl}-1-benzyl-pyridinium; bromide] — 7.7-fold higher, 330 µM
- CCCCCCCCCCCCCCOc1ccc(C(=O)N(Cc2cccc[n+]2C)C(C)=O)cc1 [2-{[Acetyl-(4-tetradecyloxy-benzoyl)-amino]-methyl}-1-methyl-pyridinium; iodide] — 45-fold lower, 0.95 µM
- CCCCCCCCCCCCCCOc1ccc(CN(Cc2cccc[n+]2CC)C(C)=O)cc1 [2-{[Acetyl-(4-tetradecyloxy-benzyl)-amino]-methyl}-1-ethyl-pyridinium; iodide] — 5.2-fold lower, 8.3 µM
- CCCCCCCCCCCCCCOc1ccc(COC(=O)N(Cc2cccc[n+]2C)C(C)=O)cc1 [2-{[Acetyl-(4-tetradecyloxy-benzyloxycarbonyl)-amino]-methyl}-1-methyl-pyridinium; iodide] — not separable, > 10 µM
- CCCCCCCCCCCCCCOc1ccc(C(=O)NC(=O)c2ccc[n+](CCC)c2)cc1OC [3-(3-Methoxy-4-tetradecyloxy-benzoylaminocarbonyl)-1-propyl-pyridinium; iodide] — not separable, > 10 µM
- CCCCCCCCCCCCCCOc1ccc(C(=O)N(Cc2ccc[n+](C)c2)C(C)=O)cc1C(C)(C)C [3-{[Acetyl-(3-tert-butyl-4-tetradecyloxy-benzoyl)-amino]-methyl}-1-methyl-pyridinium; iodide] — 2.1-fold lower, 20 µM
- CCCCCCCCCCCCCCOc1ccc(C(=O)N(Cc2ccc[n+](C)c2)C(C)=O)cc1 [3-{[Acetyl-(4-tetradecyloxy-benzoyl)-amino]-methyl}-1-methyl-pyridinium; iodide] — 6.3-fold lower, 6.8 µM
- CCCCCCCCCCCCCCOc1ccc(CN(Cc2ccc[n+](C)c2)C(C)=O)cc1 [3-{[Acetyl-(4-tetradecyloxy-benzyl)-amino]-methyl}-1-methyl-pyridinium; iodide] — not separable, > 10 µM
- CCCCCCCCCCCCCCOc1ccc(CN(Cc2cc[n+](C)cc2)C(C)=O)cc1 [4-{[Acetyl-(4-tetradecyloxy-benzyl)-amino]-methyl}-1-methyl-pyridinium; iodide] — 43-fold lower, 1 µM
- CCCCCCCCCCCCCCOc1ccc(C(=O)N(Cc2cccc[n+]2[O-])C(C)=O)cc1C(C)(C)C [N-Acetyl-3-tert-butyl-N-(1-oxy-pyridin-2-ylmethyl)-4-tetradecyloxy-benzamide] — not separable, > 10 µM
- CCCCCCCCCCCCCCOc1ccc(CNC(=O)c2cccc[n+]2CC)cc1 [Trifluoro-methanesulfonate1-ethyl-2-(4-tetradecyloxy-benzylcarbamoyl)-pyridinium;] — not separable, > 10 µM
- CCCCCCCCCCCCCCOc1ccc(COC(=O)NCc2cccc[n+]2CC)cc1 [Trifluoro-methanesulfonate1-ethyl-2-[(4-tetradecyloxy-benzyloxycarbonylamino)-methyl]-pyridinium;] — not separable, > 10 µM
- CCCCCCCCCCCCCCOc1ccc(C(=O)N(Cc2cccc[n+]2CCC)C(C)=O)cc1OC [Trifluoro-methanesulfonate2-{[acetyl-(3-methoxy-4-tetradecyloxy-benzoyl)-amino]-methyl}-1-propyl-pyridinium;] — 430-fold lower, 0.1 µM
